Assay results published in the NIST ThermoML archive (doi:10.1021/je900916e).

Test: cn = amount concentration of the nth substance listed, in mol/dm3
Details: 101 kPa, Liquid, Advanced Condctivity Orion 162A

N.O=C(O)C(F)(F)C(F)(F)C(F)(F)C(F)(F)C(F)(F)C(F)(F)C(F)(F)F [ammonium perfluorooctanoate] + O
Details	electrical conductivity [S/m]
288.15 K, c1 = 0.002632	0.019
288.15 K, c1 = 0.005195	0.0351
288.15 K, c1 = 0.007692	0.051
288.15 K, c1 = 0.01013	0.0665
288.15 K, c1 = 0.0125	0.0805
288.15 K, c1 = 0.01481	0.0943
288.15 K, c1 = 0.01707	0.1074
288.15 K, c1 = 0.01928	0.1198
288.15 K, c1 = 0.02143	0.1318
288.15 K, c1 = 0.02353	0.1429
288.15 K, c1 = 0.02558	0.1533
288.15 K, c1 = 0.02759	0.163
288.15 K, c1 = 0.02955	0.1691
288.15 K, c1 = 0.03146	0.174
288.15 K, c1 = 0.03333	0.1785
288.15 K, c1 = 0.03516	0.1828
288.15 K, c1 = 0.03696	0.187
288.15 K, c1 = 0.03957	0.1926
288.15 K, c1 = 0.04211	0.1982
288.15 K, c1 = 0.04456	0.2036
288.15 K, c1 = 0.04694	0.209
288.15 K, c1 = 0.05	0.2155
288.15 K, c1 = 0.05294	0.2216
288.15 K, c1 = 0.05577	0.2275
293.15 K, c1 = 0.002632	0.021
293.15 K, c1 = 0.005195	0.0402
293.15 K, c1 = 0.007692	0.0582
293.15 K, c1 = 0.01013	0.0753
293.15 K, c1 = 0.0125	0.092
293.15 K, c1 = 0.01481	0.1078
293.15 K, c1 = 0.01707	0.1224
293.15 K, c1 = 0.01928	0.1364
293.15 K, c1 = 0.02143	0.1498
293.15 K, c1 = 0.02353	0.1625
293.15 K, c1 = 0.02558	0.1735
293.15 K, c1 = 0.02759	0.1815
293.15 K, c1 = 0.02955	0.1888
293.15 K, c1 = 0.03146	0.1942
293.15 K, c1 = 0.03333	0.1995
293.15 K, c1 = 0.03516	0.2045
293.15 K, c1 = 0.03696	0.209
293.15 K, c1 = 0.03957	0.216
293.15 K, c1 = 0.04211	0.222
293.15 K, c1 = 0.04536	0.231
293.15 K, c1 = 0.04848	0.239
293.15 K, c1 = 0.05149	0.247
293.15 K, c1 = 0.05437	0.2545
298.15 K, c1 = 0.002817	0.0241
298.15 K, c1 = 0.005556	0.0457
298.15 K, c1 = 0.008219	0.0665
298.15 K, c1 = 0.01081	0.0848
298.15 K, c1 = 0.01333	0.1033
298.15 K, c1 = 0.01579	0.1221
298.15 K, c1 = 0.01818	0.1411
298.15 K, c1 = 0.02051	0.1577
298.15 K, c1 = 0.02278	0.1735
298.15 K, c1 = 0.025	0.1884
298.15 K, c1 = 0.02716	0.199
298.15 K, c1 = 0.02927	0.2067
298.15 K, c1 = 0.03132	0.2144
298.15 K, c1 = 0.03333	0.2207
298.15 K, c1 = 0.03529	0.2269
298.15 K, c1 = 0.03721	0.2337
298.15 K, c1 = 0.03908	0.2394
298.15 K, c1 = 0.04091	0.2452
298.15 K, c1 = 0.0427	0.251
298.15 K, c1 = 0.04444	0.2558
298.15 K, c1 = 0.04699	0.2635
298.15 K, c1 = 0.04946	0.2721
298.15 K, c1 = 0.05185	0.2798
298.15 K, c1 = 0.05417	0.2856
298.15 K, c1 = 0.05641	0.2923
303.15 K, c1 = 0.002632	0.0264
303.15 K, c1 = 0.005195	0.0503
303.15 K, c1 = 0.007692	0.0726
303.15 K, c1 = 0.01013	0.0937
303.15 K, c1 = 0.0125	0.1137
303.15 K, c1 = 0.01481	0.1325
303.15 K, c1 = 0.01707	0.1505
303.15 K, c1 = 0.01928	0.1679
303.15 K, c1 = 0.02143	0.1833
303.15 K, c1 = 0.02353	0.1983
303.15 K, c1 = 0.02558	0.2125
303.15 K, c1 = 0.02759	0.221
303.15 K, c1 = 0.02955	0.229
303.15 K, c1 = 0.03146	0.236
303.15 K, c1 = 0.03333	0.243
303.15 K, c1 = 0.03516	0.2495
303.15 K, c1 = 0.03696	0.256
303.15 K, c1 = 0.03957	0.2645
303.15 K, c1 = 0.04211	0.273
303.15 K, c1 = 0.04456	0.281
303.15 K, c1 = 0.04694	0.289
303.15 K, c1 = 0.05	0.299
303.15 K, c1 = 0.05294	0.309
303.15 K, c1 = 0.05577	0.3185
308.15 K, c1 = 0.002632	0.0291
308.15 K, c1 = 0.005195	0.0556
308.15 K, c1 = 0.007692	0.0802
308.15 K, c1 = 0.01013	0.1034
308.15 K, c1 = 0.0125	0.1244
308.15 K, c1 = 0.01481	0.1452
308.15 K, c1 = 0.01707	0.165
308.15 K, c1 = 0.01928	0.1844
308.15 K, c1 = 0.02143	0.203
308.15 K, c1 = 0.02353	0.22
308.15 K, c1 = 0.02558	0.232
308.15 K, c1 = 0.02759	0.242
308.15 K, c1 = 0.02955	0.251
308.15 K, c1 = 0.03146	0.259
308.15 K, c1 = 0.03333	0.267
308.15 K, c1 = 0.03516	0.274
308.15 K, c1 = 0.03696	0.281
308.15 K, c1 = 0.03957	0.291
308.15 K, c1 = 0.04211	0.301
308.15 K, c1 = 0.04456	0.3105
308.15 K, c1 = 0.04772	0.322
308.15 K, c1 = 0.05075	0.333
308.15 K, c1 = 0.05366	0.344
313.15 K, c1 = 0.002632	0.0318
313.15 K, c1 = 0.005195	0.0606
313.15 K, c1 = 0.007692	0.0875
313.15 K, c1 = 0.01013	0.1126
313.15 K, c1 = 0.0125	0.1364
313.15 K, c1 = 0.01481	0.1592
313.15 K, c1 = 0.01707	0.1811
313.15 K, c1 = 0.01928	0.2025
313.15 K, c1 = 0.02143	0.223
313.15 K, c1 = 0.02353	0.241
313.15 K, c1 = 0.02558	0.256
313.15 K, c1 = 0.02759	0.267
313.15 K, c1 = 0.02955	0.277
313.15 K, c1 = 0.03146	0.286
313.15 K, c1 = 0.03333	0.295
313.15 K, c1 = 0.03516	0.303
313.15 K, c1 = 0.03696	0.311
313.15 K, c1 = 0.03957	0.322
313.15 K, c1 = 0.04211	0.333
313.15 K, c1 = 0.04456	0.344
313.15 K, c1 = 0.04694	0.354
313.15 K, c1 = 0.05	0.367
313.15 K, c1 = 0.05294	0.38
318.15 K, c1 = 0.002632	0.0344
318.15 K, c1 = 0.005195	0.0656
318.15 K, c1 = 0.007692	0.0948
318.15 K, c1 = 0.01013	0.1225
318.15 K, c1 = 0.0125	0.1474
318.15 K, c1 = 0.01481	0.1726
318.15 K, c1 = 0.01707	0.1968
318.15 K, c1 = 0.01928	0.219
318.15 K, c1 = 0.02143	0.241
318.15 K, c1 = 0.02353	0.262
318.15 K, c1 = 0.02558	0.279
318.15 K, c1 = 0.02759	0.292
318.15 K, c1 = 0.02955	0.303
318.15 K, c1 = 0.03146	0.313
318.15 K, c1 = 0.03333	0.323
318.15 K, c1 = 0.03516	0.3325
318.15 K, c1 = 0.03696	0.3415
318.15 K, c1 = 0.03957	0.3535
318.15 K, c1 = 0.04211	0.3655
318.15 K, c1 = 0.04456	0.377
318.15 K, c1 = 0.04772	0.3915
318.15 K, c1 = 0.05074	0.4055
318.15 K, c1 = 0.05366	0.419
